Literature values in patent publication US20210322405A1, “COMPOSITIONS AND METHODS FOR TREATING CANCER” (Washington University, priority 2020, published 2021).

What was measured:
GBM patients = conditions: clinical trial; Butowski et al., 2016
[1] = test system: ALK-inhibitor resistant ALK-driven patient-derived cell lines; conditions: SHP099 in combination with the ALK inhibitor ceritinib; Dardaei et al., 2018
G6PD = conditions: dose-dependent manner; Bernstock et al., 2017

FC(F)(F)c1ccc(CNc2ccc(Cc3c[nH]c4ncc(Cl)cc34)cn2)cn1 [PLX3397]
clinical benefit for GBM patients (GBM patients): did not show clear benefit

CC1(N)CCN(c2cnc(-c3cccc(Cl)c3Cl)c(N)n2)CC1 [SHP099]
Shp2-activation-mediated resistance to ALK inhibitor [1]: overcome

CC[C@@]1(O)C(=O)OCc2c1cc1n(c2=O)Cc2cc3c(CN(C)C)c(O)ccc3nc2-1 [topotecan]
activity of G6PD (G6PD): decreases
